Measured values: US8012975B2, “Antitumoral analogs of ET-743” (Pharma Mar, S.A., priority 2000, dated 2011)
Where two headings read alike, the source gives them in different places.

Columns and labels:
DU-145 = test: Cytotoxic activity IC50, DU-145
P-388 = test: Cytotoxic activity IC50, P-388
HT-29 [1] = test: Cytotoxic activity IC50, HT-29
MEL-28 = test: Cytotoxic activity IC50, MEL-28
A-549 = test: Cytotoxic activity IC50, A-549
HT-29 [2] = tested on: HT-29
[3] = Homo sapiens, DU-145, read-out: CYTOTOXIC ACTIVITIY IC50 (μM) DU-145, DU-145
[4] = Mus musculus, P388, read-out: CYTOTOXIC ACTIVITIY IC50 (μM) P-388
[5] = Homo sapiens, HT-29, read-out: CYTOTOXIC ACTIVITIY IC50 (μM) HT-29, HT-29
[6] = Homo sapiens, SK-MEL-28, read-out: CYTOTOXIC ACTIVITIY IC50 (μM) MEL-28, MEL-28
[7] = Homo sapiens, A549, read-out: CYTOTOXIC ACTIVITIY IC50 (μM) A-549, A-549

Row | Structure (SMILES) | IC50 (DU-145; [3]) [µM] | IC50 (P-388; [4]) [µM] | IC50 (HT-29 [1]; [5]) [µM] | IC50 (MEL-28; [6]) [µM] | IC50 (A-549; [7]) [µM] | other results
1 | C=CCOc1c(C)c2c(c3c1CC1[C@H]4c5c(cc(C)c(OC)c5OCOC)C[C@@H]([C@H](C#N)N1[C@H]3CO)N4C)OCO2 (stereo partly shown) | 0.2 | 0.2 | 0.2 | 0.2 | 0.2 | –
2 | CCCCC(=O)NC[C@H]1c2c(c(OC(C)=O)c(C)c3c2OCO3)CC2[C@H]3c4c(cc(C)c(OC)c4O)C[C@@H]([C@H](C#N)N21)N3C (stereo partly shown) | 0.007 | 0.007 | 0.007 | 0.007 | 0.007 | –
3 | COc1c(C)cc2c(c1O)[C@@H]1C3Cc4c(OC(C)=O)c(C)c5c(c4[C@H](CNC(=O)[C@H](C)NC(=O)/C=C/c4ccccc4)N3[C@@H](C#N)[C@H](C2)N1C)OCO5 (stereo partly shown) | – | – | – | – | – | IC50 (HT-29 [2]): 0.1 nM
4 | CCCC(=O)OC[C@H]1c2c(c(O)c(C)c3c2OCO3)CC2[C@H]3c4c(cc(C)c(OC)c4OCOC)C[C@@H]([C@H](C#N)N21)N3C (stereo partly shown) | 0.1 | 0.1 | 0.1 | 0.1 | 0.1 | –
5 | COCOc1c(OC)c(C)cc2c1[C@@H]1C3Cc4c(O)c(C)c5c(c4[C@H](COC(=O)/C=C/c4cccc(C(F)(F)F)c4)N3[C@@H](C#N)[C@H](C2)N1C)OCO5 (stereo partly shown) | 0.1 | 0.1 | 0.1 | 0.1 | 0.1 | –
6 | COCOc1c(OC)c(C)cc2c1[C@@H]1C3Cc4c(O)c(C)c5c(c4[C@H](COC(=O)CCc4ccccc4)N3[C@@H](C#N)[C@H](C2)N1C)OCO5 (stereo partly shown) | 0.1 | 0.1 | 0.1 | 0.1 | 0.1 | –
7 | COCOc1c(OC)c(C)cc2c1[C@@H]1C3Cc4c(O)c(C)c5c(c4[C@H](COC(=O)/C=C/c4ccccc4)N3[C@@H](C#N)[C@H](C2)N1C)OCO5 (stereo partly shown) | 0.1 | 0.1 | 0.1 | 0.1 | 0.1 | –
8 | COCOc1c(OC)c(C)cc2c1[C@@H]1C3Cc4c(OC(C)=O)c(C)c5c(c4[C@H](COC(=O)/C=C/c4cccc(C(F)(F)F)c4)N3[C@@H](C#N)[C@H](C2)N1C)OCO5 (stereo partly shown) | 0.6 | 0.6 | 0.6 | 0.6 | 0.6 | –
9 | COCOc1c(OC)c(C)cc2c1[C@@H]1C3Cc4c(OC(C)=O)c(C)c5c(c4[C@H](COC(=O)CCc4ccccc4)N3[C@@H](C#N)[C@H](C2)N1C)OCO5 (stereo partly shown) | 0.1 | 0.1 | 0.1 | 0.1 | 0.1 | –
10 | COc1c(C)cc2c(c1O)[C@@H]1C3Cc4c(OC(C)=O)c(C)c5c(c4[C@H](COC(=O)/C=C/c4cccc(C(F)(F)F)c4)N3[C@@H](C#N)[C@H](C2)N1C)OCO5 (stereo partly shown) | 0.001 | 0.001 | 0.001 | 0.001 | 0.001 | –
11 | C=CCOC(=O)Oc1c(C)c2c(c3c1CC1[C@H]4c5c(cc(C)c(OC)c5OCOC)C[C@@H]([C@H](C#N)N1[C@H]3CNC(=O)[C@H](C)NC(=O)OC(C)(C)C)N4C)OCO2 (stereo partly shown) | 0.06 | 0.06 | 0.06 | 0.06 | 0.06 | –
12 | C=CCOC(=O)Oc1c(C)c2c(c3c1CC1[C@H]4c5c(cc(C)c(OC)c5O)C[C@@H]([C@H](C#N)N1[C@H]3CNC(=O)[C@H](C)N)N4C)OCO2 (stereo partly shown) | 0.001 | 0.001 | 0.001 | 0.001 | 0.001 | –
13 | C=CCOC(=O)Oc1c(C)c2c(c3c1CC1[C@H]4c5c(cc(C)c(OC)c5O)C[C@@H]([C@H](C#N)N1[C@H]3CNC(=O)[C@H](C)NC(=S)Nc1ccccc1)N4C)OCO2 (stereo partly shown) | 0.001 | 0.001 | 0.001 | 0.001 | 0.001 | –
14 | C=CCOC(=O)Oc1c(C)c2c(c3c1CC1[C@H]4c5c(cc(C)c(OC)c5O)C[C@@H]([C@H](C#N)N1[C@H]3CN)N4C)OCO2 (stereo partly shown) | 0.06 | 0.06 | 0.06 | 0.06 | 0.06 | –
15 | C=CCOC(=O)Oc1c(C)c2c(c3c1CC1[C@H]4c5c(cc(C)c(OC)c5O)C[C@@H]([C@H](C#N)N1[C@H]3CNC(=O)OCC(Cl)(Cl)Cl)N4C)OCO2 (stereo partly shown) | 0.006 | 0.006 | 0.006 | 0.006 | 0.006 | –
16 | C=CCOC(=O)Oc1c(C)c2c(c3c1CC1[C@H]4c5c(cc(C)c(OC)c5OCOC)C[C@@H]([C@H](C#N)N1[C@H]3CNC(=O)OCC(Cl)(Cl)Cl)N4C)OCO2 (stereo partly shown) | 0.1 | 0.1 | 0.1 | 0.1 | 0.1 | –

Row | Structure (SMILES) | IC50 (DU-145; [3]) [µM] | IC50 (P-388; [4]) [µM] | IC50 (HT-29 [1]; [5]) [µM] | IC50 (MEL-28; [6]) [µM] | IC50 (A-549; [7]) [µM] | other results
17 | COc1c(C)cc2c(c1O)[C@@H]1C3Cc4c(O)c(C)c5c(c4[C@H](CNC(=O)/C=C/c4ccccc4)N3[C@@H](C#N)[C@H](C2)N1C)OCO5 (stereo partly shown) | 0.001 | 0.001 | 0.001 | 0.001 | 0.001 | –
18 | C=CCOC(=O)Oc1c(C)c2c(c3c1CC1[C@H]4c5c(cc(C)c(OC)c5OCOC)C[C@@H]([C@H](O)N1[C@H]3CNC(=O)CCc1ccccc1)N4C)OCO2 (stereo partly shown) | 0.1 | 0.1 | 0.1 | 0.1 | 0.1 | –
19 | COCOc1c(OC)c(C)cc2c1[C@@H]1C3Cc4c(O)c(C)c5c(c4[C@H](CNC(=O)CCc4ccccc4)N3[C@@H](C#N)[C@H](C2)N1C)OCO5 (stereo partly shown) | 0.1 | 0.1 | 0.1 | 0.1 | 0.1 | –
20 | COCOc1c(OC)c(C)cc2c1[C@@H]1C3Cc4c(OC(=O)C(F)(F)F)c(C)c5c(c4[C@H](CNC(=O)CCc4ccccc4)N3[C@@H](C#N)[C@H](C2)N1C)OCO5 (stereo partly shown) | 0.5 | 0.5 | 0.5 | 0.5 | 0.5 | –
21 | COCOc1c(OC)c(C)cc2c1[C@@H]1C3Cc4c(OC(=O)CCl)c(C)c5c(c4[C@H](CNC(=O)CCc4ccccc4)N3[C@@H](C#N)[C@H](C2)N1C)OCO5 (stereo partly shown) | 0.1 | 0.1 | 0.1 | 0.1 | 0.1 | –
22 | COCOc1c(OC)c(C)cc2c1[C@@H]1C3Cc4c(OC(=O)CCCl)c(C)c5c(c4[C@H](CNC(=O)CCc4ccccc4)N3[C@@H](C#N)[C@H](C2)N1C)OCO5 (stereo partly shown) | 0.05 | 0.05 | 0.05 | 0.05 | 0.05 | –
23 | COc1c(C)cc2c(c1O)[C@@H]1C3Cc4c(OC(=O)C(F)(F)F)c(C)c5c(c4[C@H](CNC(=O)CCc4ccccc4)N3[C@@H](C#N)[C@H](C2)N1C)OCO5 (stereo partly shown) | 0.01 | 0.01 | 0.01 | 0.01 | 0.01 | –
24 | COc1c(C)cc2c(c1O)[C@@H]1C3Cc4c(OC(=O)CCl)c(C)c5c(c4[C@H](CNC(=O)CCc4ccccc4)N3[C@@H](C#N)[C@H](C2)N1C)OCO5 (stereo partly shown) | 0.001 | 0.001 | 0.001 | 0.001 | 0.001 | –
25 | COc1c(C)cc2c(c1O)[C@@H]1C3Cc4c(OC(=O)CCCl)c(C)c5c(c4[C@H](CNC(=O)CCc4ccccc4)N3[C@@H](C#N)[C@H](C2)N1C)OCO5 (stereo partly shown) | 0.01 | 0.01 | 0.01 | 0.01 | 0.01 | –
26 | COc1c(C)cc2c(c1O)[C@@H]1C3Cc4c(OC(=O)C(F)(F)C(F)(F)C(F)(F)F)c(C)c5c(c4[C@H](CNC(=O)CCc4ccccc4)N3[C@@H](C#N)[C@H](C2)N1C)OCO5 (stereo partly shown) | – | 0.006 | – | – | – | IC50 (DU-145; Homo sapiens, DU-145, read-out: CYTOTOXIC ACTIVITIY IC50 (μM) DU-145): 0.006 µM; IC50 (HT-29 [1]; Homo sapiens, HT-29, read-out: CYTOTOXIC ACTIVITIY IC50 (μM) HT-29): 0.006 µM; IC50 (MEL-28; Homo sapiens, SK-MEL-28, read-out: CYTOTOXIC ACTIVITIY IC50 (μM) MEL-28): 0.006 µM; IC50 (A-549; Homo sapiens, A549, read-out: CYTOTOXIC ACTIVITIY IC50 (μM) A-549): 0.006 µM
27 | COc1c(C)cc2c(c1OC(C)=O)[C@@H]1C3Cc4c(OC(=O)CCl)c(C)c5c(c4[C@H](CNC(=O)CCc4ccccc4)N3[C@@H](C#N)[C@H](C2)N1C)OCO5 (stereo partly shown) | 0.01 | 0.01 | 0.01 | 0.01 | 0.01 | –
28 | COC1=C(C)C(=O)C2=C(C1=O)[C@H](CNC(=O)[C@H](C)NC(C)=O)N1C(C2)[C@H]2c3c(cc(C)c(OC)c3O)C[C@@H]([C@@H]1C#N)N2C (stereo partly shown) | 0.08 | 0.08 | 0.08 | 0.08 | 0.08 | –
29 | COc1c(C)cc2c(c1O)[C@@H]1C3Cc4c(OC(C)=O)c(C)c5c(c4[C@H](CNC(=O)/C=C/c4cccc(C(F)(F)F)c4)N3[C@@H](O)[C@H](C2)N1C)OCO5 (stereo partly shown) [drawing 109] | – | – | – | – | – | IC50 (DU-145; read-out: CYTOTOXIC ACTIVITIY IC50 (μM) DU-145, DU-145): 0.0001 µM; IC50 (P-388; read-out: CYTOTOXIC ACTIVITIY IC50 (μM) P-388, P-388): 0.0001 µM; IC50 (HT-29 [1]; read-out: CYTOTOXIC ACTIVITIY IC50 (μM) HT-29, HT-29): 0.0001 µM; IC50 (MEL-28; read-out: CYTOTOXIC ACTIVITIY IC50 (μM) MEL-28, MEL-28): 0.0001 µM; IC50 (A-549; read-out: CYTOTOXIC ACTIVITIY IC50 (μM) A-549, A-549): 0.0001 µM
30 | COc1c(C)cc2c(c1O)[C@@H]1C3Cc4c(OC(C)=O)c(C)c5c(c4[C@H](CNC(=O)Cc4ccccc4)N3[C@@H](O)[C@H](C2)N1C)OCO5 (stereo partly shown) [drawing 124] | 0.0007 | 0.0007 | 0.0007 | 0.0007 | 0.0007 | –
31 | COc1c(C)cc2c(c1O)[C@@H]1C3Cc4c(OC(C)=O)c(C)c5c(c4[C@H](CNC(=O)[C@H](C)NC(=O)Cc4ccccc4)N3[C@@H](O)[C@H](C2)N1C)OCO5 (stereo partly shown) [drawing 137] | 0.0007 | 0.0007 | 0.0007 | 0.0007 | 0.0007 | –
